This experiment concerns GUMC-403. The experiment is described as follows: viability at highest tested concentration (max response) relative to DMSO (% of DMSO control); higher = less cytotoxic. The following applies: library / dose series: MIPE library, 11-point 1:3 dilution, 48 h. A digest of the protocol: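 This value is viability at the highest tested concentration relative to vehicle control. GUMC-403 papilloma cells from a patient, grown by conditional reprogramming, were plated at 700/well in 1536-well plates and given 23 nL of compound by pin tool for 48 h. CellTiter-Glo luminescence on a ViewLux was normalised with vehicle wells at 100% and empty wells at 0%.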

Structures are written as SMILES.

Take `C[C@@H]1CC[C@@]2(CC[C@]3(C)\C(=C/C[C@@H]4[C@@]5(C)C[C@@H](O)[C@H](O)[C@@](C)(CO)[C@@H]5CC[C@@]34C)[C@@H]2[C@H]1C)C(O)=O`: the viability (top concentration 46.1 µM) worked out at 114.

For the setting “top concentration 46.1 µM”, `C#CCN(C)[C@H](C)Cc1ccccc1` showed a viability of 92.4.

Consider `COc1ccccc1[C@H](c1cccc2ccccc12)[C@@](C)(C#N)C(=O)N1CCC(c2cccc(C(F)(F)F)c2)CC1`, for which the viability (top concentration 46.1 µM) is 86.3.

The compound `COC1=CC=C2C(=CC=NC2=C1)OC3=CC=C(NC(=O)\C4=C(C)\N(CC(C)(C)O)N(C4=O)C5=CC=CC=C5)C=C3F` showed a viability (top concentration 46.1 µM) of 80.3.

In the case of `CN[C@@H](C)C(=O)N[C@H]1CN(C(=O)CC(C)C)CC[C@H]2CC[C@@H](C(=O)NC(c3ccccc3)c3ccccc3)N2C1=O`, the viability (top concentration 46.1 µM) was 73.1.

`CC(=O)SC[C@@H](C)C(=O)N1CCC[C@H]1C(=O)N[C@@H](Cc1ccccc1)C(=O)O` yielded a viability (top concentration 46.1 µM) of 135.

`CCNC(=O)CCC/C=C\C[C@@H]1[C@@H](/C=C/C(O)CCc2ccccc2)[C@@H](O)C[C@@H]1O` (stereo partly drawn) showed a viability (top concentration 46.1 µM) of 109.

As for `N#CC(c1ccnc(NCCc2cccnc2)n1)c1nc2ccccc2s1` (stereo not drawn), the viability (top concentration 46.1 µM) was determined as 108.

Compound `Cc1cccc(C)c1OCC(=O)N[C@@H](Cc1ccccc1)[C@@H](O)C[C@H](Cc1ccccc1)NC(=O)[C@H](C(C)C)N1CCCNC1=O` gave a viability (top concentration 46.1 µM) of 121.

With `CCN(CC)CCCCNc1nc2cc(Cl)c(Cl)cc2nc1-c1ccc(-c2cccs2)s1`, the viability (top concentration 46.1 µM) stood at 92.1.

For `C=CC[C@@H]1/C=C(\C)C[C@H](C)C[C@H](OC)[C@H]2O[C@@](O)(C(=O)C(=O)N3CCCC[C@H]3C(=O)O[C@H](/C(C)=C/[C@@H]3CC[C@@H](O)[C@H](OC)C3)[C@H](C)[C@@H](O)CC1=O)[C@H](C)C[C@@H]2OC`, the viability (top concentration 46.1 µM) was 126.

`C1Cc2[nH]nc(-c3nn[nH]n3)c2C1` showed a viability (top concentration 46.1 µM) of 118.

`C[S+](=O)([O-])OCCCCO[S+](C)(=O)[O-]` registered a viability (top concentration 46.1 µM) of 134.

As to `CC(C)(C)C(=O)OCOP(=O)(COCCn1cnc2c(N)ncnc21)OCOC(=O)C(C)(C)C`, under “top concentration 46.1 µM”, the viability was 93.

`COc1cc([C@@H]2c3cc4c(cc3[C@@H](O)C3COC(=O)C32)OCO4)cc(OC)c1O` (stereo partly drawn) displayed a viability (top concentration 46.1 µM) of 117.

As to `C#C[C@]1(O)CC[C@H]2[C@@H]3CCc4cc(OC)ccc4[C@H]3CC[C@@]21C`, the viability (top concentration 46.1 µM) was determined as 88.2.

Where the note is “top concentration 46.1 µM”, `CN1\C=N/C2=CC=C(NC3=CC(=CC=C3C)NC(=O)C4=CC(=CC=C4)C(C)(C)C#N)C=C2C1=O` showed a viability of 96.2.

`COc1cc([C@@H]2c3cc4c(cc3[C@@H](O[C@@H]3O[C@@H]5CO[C@@H](c6cccs6)O[C@H]5[C@H](O)[C@H]3O)[C@H]3COC(=O)[C@H]23)OCO4)cc(OC)c1O` returned a viability (top concentration 46.1 µM) of 56.7.

In the case of `COCCCOc1cc(C[C@@H](C[C@H](N)[C@@H](O)C[C@H](C(=O)NCC(C)(C)C(N)=O)C(C)C)C(C)C)ccc1OC`, the viability (top concentration 46.1 µM) is 130.

As to `C=C1C(=O)OC2/C=C(/C)CC/C=C(/C)CCC12` (stereo not drawn), where the note is “top concentration 46.1 µM”, the viability came out at 113.

With `C#Cc1cccc(Nc2ncnc3cc(OCCOC)c(OCCOC)cc23)c1`, the viability (top concentration 46.1 µM) stood at 47.6.

The compound `O=C(NC1CCOCC1)c1ccc(-c2cc(-c3c[nH]nc3-c3ccccn3)ccn2)cc1` displayed a viability (top concentration 46.1 µM) of 159.

On to `CNC[C@H](O)c1cccc(O)c1`, for which the viability (top concentration 46.1 µM) worked out at 139.

For `O=C1\C=C(OC2=C(C=CC=C12)C3=CC=CC4=C3SC5=C4C=CC=C5)\N6CCOCC6`, the viability (top concentration 46.1 µM) was found to be 70.9.

The compound `Cn1cnc([N+](=O)[O-])c1Sc1ncnc2nc[nH]c12` yielded a viability (top concentration 46.1 µM) of 105.

Compound `C[C@]12CC[C@H]3[C@@H](CC[C@H]4NC(=O)\C=C/[C@]34C)[C@@H]1CC[C@@H]2C(=O)NC5=CC(=CC=C5C(F)(F)F)C(F)(F)F` displayed a viability (top concentration 46.1 µM) of 96.3.

Turning to `CC1CNc2c(cccc2[S+](=O)([O-])N[C@@H](CCCNC(=N)N)C(=O)N2CC[C@@H](C)C[C@@H]2C(=O)O)C1` (stereo partly drawn), the viability (top concentration 46.1 µM) is 125.

For the compound `CC/1=C/N([C@@H]2C[C@@H](O)[C@H](CO)O2)C(=O)NC1=O`, where the note is “top concentration 46.1 µM”, the viability was 117.

In turn, `Oc1ccc(OCc2ccccc2)cc1` yielded a viability (top concentration 46.1 µM) of 110.

For the compound `NC[C@H]1O[C@H](O[C@@H]2[C@H](O)[C@@H](O[C@H]3O[C@H](CO)[C@@H](O)[C@H](N)[C@H]3O)[C@H](N)C[C@@H]2N)[C@H](O)[C@@H](O)[C@@H]1O`, the viability (top concentration 46.1 µM) is 103.

Consider `COc1ccc2c(c1)CN(C)CC2c1ccc(Cl)c(Cl)c1` (stereo not drawn), for which, for the setting “top concentration 46.1 µM”, the viability was 129.

With `C[C@H]1C[C@H]2[C@@H]3CCC4=CC(=O)C=C[C@]4(C)[C@H]3C(=O)C[C@]2(C)[C@@]1(O)C(=O)CO`, under “top concentration 46.1 µM”, the viability was 104.

Under “top concentration 46.1 µM”, `CC(C)[C@H](CO)Nc1nc(Nc2cccc(Cl)c2)c2ncn(C(C)C)c2n1` came in with a viability of 21.1.

`OC1=CC=C(C=C1)\C2=C\OC3=C(C(=CC(=C3)O)O)C2=O`: where the note is “top concentration 46.1 µM”, the viability is 77.6.

The compound `CCC\C1=C\C(=O)NC(=S)N1` returned a viability (top concentration 46.1 µM) of 110.

On to `CC1(C)CCC(=C(\C1)C2=CC=C(Cl)C=C2)/CN3CCN(CC3)C4=CC(=C(C=C4)C(=O)N[S+]([O-])(=O)C5=CC=C(NCC6CCOCC6)C(=C5)[N+]([O-])=O)OC7=CN=C8[NH]C=CC8=C7`, for which the viability (top concentration 46.1 µM) stood at 105.

The compound `CCC[S+](=O)([O-])Nc1ccc(F)c(C(=O)c2c[nH]c3ncc(Cl)cc23)c1F` registered a viability (top concentration 46.1 µM) of 79.1.

`CCC(=O)O[C@@]1(CC[C@H]2[C@@H]3CCC/4=C/C(=O)CC[C@]4(C)[C@H]3CC[C@]12C)C(=O)CO` yielded a viability (top concentration 46.1 µM) of 119.

Regarding `COC1=NC(=NC(=C1N\C2=N\CCN2)Cl)C`, the viability (top concentration 46.1 µM) turned out to be 95.8.

The compound `CN(C)c1ccc(-c2nc3c(N4CCN(CC(=O)Nc5nccs5)CC4)c(Cl)cnc3[nH]2)cc1` showed a viability (top concentration 46.1 µM) of 110.

Compound `CC(C)n1nc(-c2ccc3oc(N)nc3c2)c2c(N)ncnc21` returned a viability (top concentration 46.1 µM) of 29.8.

Take `CO/N=C(\C(=O)N[C@@H]1C(=O)N2C(C(=O)OCOC(=O)C(C)(C)C)=C(/C=C\c3scnc3C)CS[C@H]12)c1csc(N)n1`: under “top concentration 46.1 µM”, the viability was 137.

Compound `OC1=C(Cl)C=C(N\C2=C(\C(=O)NC2=O)C3=C(C=CC=C3)[N+]([O-])=O)C=C1` registered a viability (top concentration 46.1 µM) of 103.

Consider `CN(C)c1ccc(O)c2c1C[C@H]1C[C@H]3[C@H](N(C)C)C(O)=C(C(N)=O)C(=O)[C@@]3(O)C(O)=C1C2=O`, for which the viability (top concentration 46.1 µM) came to 110.

`CO[C@H]1C[C@@H]2CC[C@@H](C)[C@@](O)(O2)C(=O)C(=O)N2CCCC[C@H]2C(=O)O[C@H]([C@H](C)C[C@@H]2CC[C@@H](OP(C)(C)=O)[C@H](OC)C2)CC(=O)[C@H](C)/C=C(\C)[C@@H](O)[C@@H](OC)C(=O)[C@H](C)C[C@H](C)/C=C/C=C/C=C/1C` had a viability (top concentration 46.1 µM) of 104.

In turn, `OC[C@H]1O[C@H](C[C@@H]1O)N2/C=C(C(=O)NC2=O)/C(F)(F)F` gave a viability (top concentration 46.1 µM) of 103.

With `CCCCc1nc2cc(/C=C/C(=O)NO)ccc2n1CCN(CC)CC`, for the setting “top concentration 46.1 µM”, the viability is 67.2.

Under “top concentration 46.1 µM”, `COc1cc2nc(N(C)CCCNC(=O)C3CCCO3)nc(N)c2cc1OC` (stereo not drawn) registered a viability of 116.

The compound `COc1ccc2c(c1)[C@]13CCCCC1C(C2)N(C)CC3` (stereo partly drawn) registered a viability (top concentration 46.1 µM) of 102.

`COc1cc2c(Nc3ccc(Cl)c(Cl)c3F)ncnc2cc1OCC1C[C@@H]2CN(C)C[C@@H]2C1` (stereo partly drawn) had a viability (top concentration 46.1 µM) of 12.5.

Turning to `C[C@@H]1C[C@H]2[C@@H]3\C=C(C)/C4=C/C5=C(C[C@]4(C)[C@H]3[C@@H](O)C[C@]2(C)[C@@]1(O)C(=O)CO)C=N[N]5C6=CC=CC=C6`, under “top concentration 46.1 µM”, the viability came to 125.

As for `O=C1[O][Pt]2([NH]C3CCCCC3[NH]2)[O]C1=O` (stereo not drawn), the viability (top concentration 46.1 µM) was 113.

Compound `Cc1ccc([S+](=O)([O-])Nc2nc3ccccc3nc2Nc2ccc3nsnc3c2)cc1` registered a viability (top concentration 23 µM) of 66.3.

For the setting “top concentration 46.1 µM”, `CN1CCCC(CC1)N2\N=C(CC3=CC=C(Cl)C=C3)/C4=C(C=CC=C4)C2=O` (stereo not drawn) yielded a viability of 78.8.

`COc1cccc([C@@H](C)NCCCc2ccccc2Cl)c1` registered a viability (top concentration 46.1 µM) of 105.

Regarding `COc1ccc([S+](=O)([O-])N(C(C)=O)c2ccccc2/C=C/c2cc[n+]([O-])cc2)cc1`, the viability (top concentration 46.1 µM) worked out at 60.2.

`OCc1ccccc1O[C@@H]1O[C@H](CO)[C@@H](O)[C@H](O)[C@H]1O` registered a viability (top concentration 46.1 µM) of 151.

`COC[C@H]1OC(=O)C2=COC3=C2[C@@]1(C)\C4=C(C5CCC(=O)[C@@]5(C)C[C@H]4OC(C)=O)/C3=O` (stereo partly drawn): the viability (top concentration 46.1 µM) is 88.9.

In the case of `NC(=O)c1cnc(-c2ccc(C3(N)CCC3)cc2)c(-c2ccccc2)c1`, the viability (top concentration 46.1 µM) is 103.

As to `NC(=O)c1cccc(-c2cccc(OC(=O)NC3CCCCC3)c2)c1`, the viability (top concentration 46.1 µM) amounted to 104.

`CCCCC(=O)O[C@]1(C(=O)CO)[C@H](C)C[C@H]2[C@@H]3CCC4=CC(=O)C=C[C@]4(C)[C@@]3(F)[C@@H](O)C[C@@]21C` yielded a viability (top concentration 46.1 µM) of 121.

In the case of `NC\1=N\C(=O)N(\C=N1)[C@H]2C[C@H](O)[C@@H](CO)O2`, the viability (top concentration 46.1 µM) was 105.

Where the note is “top concentration 46.1 µM”, `COC1=CC=CC(=C1/C2=N/CC3=C(N=C(NC4=CC(=C(C=C4)C(O)=O)OC)N=C3)C5=CC=C(Cl)C=C25)F` displayed a viability of 45.4.

With `CN(C)C[C@@H]1CC[N]2C=C(C3=C2C=CC=C3)C/4=C(/C(=O)NC4=O)C5=C[N](CCO1)C6=C5C=CC=C6`, the viability (top concentration 46.1 µM) turned out to be 89.8.

`CN(C)C/C=C/C(=O)Nc1cc2c(Nc3ccc(F)c(Cl)c3)ncnc2cc1O[C@H]1CCOC1`: under “top concentration 46.1 µM”, the viability came to 41.7.

With `CC\12CCC(=O)\C=C1CCC3C2CCC4(C)C3CCC4(O)C#C` (stereo not drawn), the viability (top concentration 46.1 µM) is 103.

For `CCOC(=O)N1CCN(/[N+]([O-])=N/Oc2ccc([N+](=O)[O-])cc2C#N)CC1`, the viability (top concentration 46.1 µM) was found to be 92.1.

Turning to `CC1(C)O[C@@H]2C[C@H]3[C@@H]4CCC5=CC(=O)C=C[C@]5(C)[C@@]4(F)[C@@H](O)C[C@]3(C)[C@]2(C(=O)CO)O1`, the viability (top concentration 46.1 µM) was determined as 117.
